How the values were obtained:
human recombinant MDH1 = biological target: T1, human recombinant MDH1 (Homo sapiens, UniProt P40925); assay: MDH1 enzyme activity assay (oxaloacetate-dependent NADH oxidation); format: biochemical; conditions: means of three experiments
T1 construct: purchased BioVision
T1 sequence (P40925 1-334): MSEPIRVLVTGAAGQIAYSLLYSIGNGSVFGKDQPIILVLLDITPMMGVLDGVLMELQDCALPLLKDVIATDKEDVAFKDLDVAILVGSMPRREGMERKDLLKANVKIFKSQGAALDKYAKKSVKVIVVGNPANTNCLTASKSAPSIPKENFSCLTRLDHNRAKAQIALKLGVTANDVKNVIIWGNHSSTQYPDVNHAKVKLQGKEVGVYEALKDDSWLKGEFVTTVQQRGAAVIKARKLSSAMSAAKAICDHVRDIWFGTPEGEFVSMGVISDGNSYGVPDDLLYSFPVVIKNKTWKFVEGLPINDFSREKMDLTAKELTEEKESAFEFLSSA
From the text: To develop the dual inhibitors of MDH1 and MDH2, we screened the newly synthesized LW1497 derivatives using MDH and MDH2 enzyme assays. LW1497 was used as the positive control for the MDH1/2 dual inhibitor. We evaluated the ability of the synthesized compounds to inhibit human recombinant MDH1 and MDH2 enzymatic activity using an oxaloacetate-dependent NADH oxidation assay (Table 1, Table 2, Table 3, Table 4, Table 5 and Table 6). Our SAR optimization strategy focused on four different parts of LW1497: (A) the introduction of various groups at different positions on the amide phenyl ring; (B) the replacement of the 3-(4-(2,4,4-trimethylpentan-2-yl) alkyl chain; (C) the alteration of the amide portion; and (D) the modification of the oxypropanamide linker portion (Figure 1).
The activities of MDH1 and MDH2 were confirmed using an oxaloacetate-dependent NADH oxidation assay. Experiments were conducted using 100 mM of potassium phosphate buffer (pH 7.4) and human recombinant MDH1 (BioVision) and MDH2 (BioVision), and the results were obtained by measuring the absorbance at 340 nm. Enzyme activity was measured using a plate reader at a wavelength of 340 nm.

A549 cells [1] = assay: Intracellular ATP content (ATPlite); format: cell-based, human; conditions: 6 h
Protocol: (§1) Malate transported to the interior of the mitochondria is oxidized to OAA by mitochondrial MDH2, thereby generating NADH, which then enters the ETC to produce ATP. Because inhibition of MAS is expected to reduce ATP production in cancer cells, the total amount of ATP was measured after treatment with compound 50.
A549 cells (1 × 10^4 cells/96-well plate) were incubated for 6 h with or without drugs. After removing the supernatant, an ATP assay was performed using ATPlite (PerkinElmer, Waltham, MA, USA) according to the manufacturer’s instructions. ATP content was measured using a luminometer (Synergy HTX multimode reader, Winoski, VT, USA).

A549 cells [2] = assay: ADP/ATP ratio assay; format: cell-based, human
Protocol: as §1
The ADP/ATP ratio assay kit (Sigma-Aldrich, USA) was used for ADP/ATP determination according to the manufacturer’s instructions. Samples for analysis were prepared using the ADP/ATP ratio assay kit. A549 cells were cultured directly in an assay microplate. The culture medium was removed, and then 90 µL of ATP reagent was added to each well and incubated for 1 min at room temperature. Luminescence was measured on a luminometer for ATP (RLUA), and the plate was incubated for an additional 10 min. Next, the luminescence was read on a luminometer for ATP (RLUB). Five microliters of ADP reagent were added to each well. After 1 min, the luminescence was read (RLUC).

In the case of `CC(C)(C)CC(C)(C)c1ccc(N2CCC(C(=O)Nc3cccc(OC(F)(F)F)c3)CC2)cc1` [Compound 50, N-(3-(Trifluoromethoxy)phenyl)-1-(4-(2,4,4-trimethylpentan-2-yl)phenyl)piperidine-4-carboxamide], the IC50 (human recombinant MDH1) is reported as 3.33 ± 0.18 µM, the ATP level (A549 cells [1]) is reported as “reduced ATP level” and the ADP/ATP (A549 cells [2]) is reported as “increase in ADP/ATP”.

Reference: paper PMC10263210, “Design, Synthesis and Biological Evaluation of Novel MDH Inhibitors Targeting Tumor Microenvironment” (Pharmaceuticals, 2023)
